In article PMC2785468, “Androgen Receptor Mutations Associated with Androgen Insensitivity Syndrome: A High Content Analysis Approach Leading to Personalized Medicine” (PLoS ONE, 2009):

Target: T1, AR-R840C (Homo sapiens, UniProt P10275, R841C)
T1 construct: expressed in transfected cells
T1 sequence (P10275 1-920 R841C): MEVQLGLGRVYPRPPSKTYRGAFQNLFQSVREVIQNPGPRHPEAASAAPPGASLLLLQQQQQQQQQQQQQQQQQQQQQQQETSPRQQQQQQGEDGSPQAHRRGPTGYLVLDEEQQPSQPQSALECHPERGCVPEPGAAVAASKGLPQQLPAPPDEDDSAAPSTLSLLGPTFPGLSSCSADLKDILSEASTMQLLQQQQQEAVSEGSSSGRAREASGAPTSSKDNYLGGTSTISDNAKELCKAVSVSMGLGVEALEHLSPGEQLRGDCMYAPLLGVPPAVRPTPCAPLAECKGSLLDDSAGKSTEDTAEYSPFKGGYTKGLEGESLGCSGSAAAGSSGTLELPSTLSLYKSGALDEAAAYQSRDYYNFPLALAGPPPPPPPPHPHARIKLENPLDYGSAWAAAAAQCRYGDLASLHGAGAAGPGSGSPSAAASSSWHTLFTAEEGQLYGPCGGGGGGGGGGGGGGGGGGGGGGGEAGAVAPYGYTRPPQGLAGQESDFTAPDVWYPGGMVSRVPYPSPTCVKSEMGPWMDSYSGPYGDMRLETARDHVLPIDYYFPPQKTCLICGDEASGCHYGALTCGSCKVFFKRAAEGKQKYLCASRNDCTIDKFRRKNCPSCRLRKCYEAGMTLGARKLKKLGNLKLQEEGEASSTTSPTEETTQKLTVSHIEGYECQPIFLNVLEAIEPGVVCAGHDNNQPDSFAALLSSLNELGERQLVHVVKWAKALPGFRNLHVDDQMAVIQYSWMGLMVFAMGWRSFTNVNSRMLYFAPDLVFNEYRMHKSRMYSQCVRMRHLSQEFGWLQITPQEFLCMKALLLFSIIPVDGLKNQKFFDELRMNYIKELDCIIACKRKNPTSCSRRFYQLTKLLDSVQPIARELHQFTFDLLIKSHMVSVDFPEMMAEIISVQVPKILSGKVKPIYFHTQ
Assay type: cell-based
Protocol: To determine the global effect of the various AIS mutations on AR signaling, each was analyzed using HCA. This technology allows simultaneous quantification of AR protein expression, nuclear translocation, subnuclear patterning, and transcriptional activity. The analysis was done in HeLa cell lines stably transfected with wild type or mutant ARs fused with green fluorescent protein, or using AR immunofluorescence in primary cultures of genital skin fibroblasts generated from foreskin biopsies of historical AIS patients, or of normal neonates undergoing circumcision at birth. To prevent the effects of receptor over-expression, stable HeLa cells were carefully selected to express AR levels similar to LNCaP as previously described. Prior to ligand treatment, HeLa cells were transfected with the pARR2PB-dsRED2skl reporter plasmid, consisting of the AR responsive promoter ARR2PB [31] driving expression of the red fluorescent protein reporter dsRED2skl engineered to target peroxisomes.
For studies utilizing HeLa GFP-AR cell lines, twenty-four hours before transfection with pARR2PB-dsRED2skl, cells were plated onto 100 mm plastic dishes in medium supplemented with 5% charcoal-stripped and dialyzed-FBS. Transient introduction of the pARR-2PB-dsRED2skl reporter construct was performed using 6.0 µg reporter plasmid and 6.0 µg carrier DNA (BlueScript, Stratagene, San Diego, CA) using Transfectin (Biorad) following standard protocols. After 8-hour incubation, DNA/lipid complexes were removed. Cells were then trypsinized and replated at 10,000 cells per well in Nunc poly-D-lysine treated 96-well optical glass bottom plates and incubated an additional 12 hours to allow for cell adhesion. […] Compound dilutions and final addition to multi-well plates were performed using a Beckman Biomek NX robotic platform to ensure repeatability from experiment to experiment. After incubation was complete, using the Biomek NX robot, plates were washed with PBS and fixed for 20 min at RT in 4% formaldehyde prepared in CSK buffer (80 mM potassium PIPES, pH 6.8, 5 mM EGTA, 2 mM MgCl2). After fixation, cells were briefly permeabilized (5 min) with 0.5% Triton-X and prepared for imaging by washing in PBS, aspirating the washed solution, and adding a 1 ng/ml DAPI solution to stain DNA and a generic protein stain (CellMask, Invitrogen) to facilitate cell and nuclear image segmentation. Cells were imaged in PBS.
Cells were imaged using the Cell Lab IC-100 Image Cytometer (IC-100; Beckman Coulter) platform that consists of 1) Nikon Eclipse TE2000-U Inverted Microscope (Nikon; Melville, NY); 2) Chroma 82000 triple band filter set (Chroma; Brattleboro, VT); 3) an imaging camera: Hamamatsu ORCA-ER Digital CCD camera (Hamamatsu; Bridgewater, NJ); and 4) a focusing camera: Photonics COHU Progressive scan camera (Photonics; Oxford, MA). […] In general, 49 to 64 images were captured per well for image analysis.
While our initial AR studies using HTM were based upon CytoShop (Beckman-Coulter), [15], [33], these approaches were refined in the current work with the more robust server-client Pipeline Pilot image analysis platform (Basic and Advanced Imagine Collections, Pipeline Pilot 7.5, Accelrys, San Diego). Initially, the background signal was removed from all images using plate- and channel-specific correction images, generated by the sum projection of >600 randomly selected images for each channel from the image set. This allows for a pixel-by-pixel background subtraction that compensates any consistent uneven background artifacts in the image set. Furthermore, users are able to customize the degree of background subtraction by applying a multiplier to each correction image, useful for identification of objects such as nuclei or cell borders. After background subtraction, nuclear masks were generated using a combination of non-linear least squares and watershed-from-markers image manipulations of the DAPI images (Fig. 1B).

Structure (SMILES): C[C@@H]1CC2=CC(=O)CC[C@@H]2[C@H]2CC[C@@]3(C)[C@@H](CC[C@]3(C)O)[C@@H]21 [Mb, Mibolerone]
- hyperspeckling (HeLa AR-R840C): 8 fold increase
- transcriptional activation (HeLa AR-R840C): 11 fold
- increase in nuclear translocation (HeLa AR-R840C, vs untreated): 29%
- Nuclear Translocation, Max (HeLa R840C, % signal present in the nucleus): 63.7±1.1%
- Hyperspeckling, Max (HeLa R840C, absolute numerical measurement): 269±20
- Transcriptional Activity, Max (HeLa R840C, pARR2PB-dsRED2skl reporter, absolute numerical measurement): 35.3±1.4
